Data on 33 compounds can be found in patent US10508077B2 (FORMA Therapeutics, Inc., priority 2015, dated 2019).

The test concerns the target T1, Full length human recombinant HDAC8 protein (Homo sapiens, UniProt Q9BY41).
T1 construct: Full length human recombinant HDAC8 protein was expressed in baculoviral system; made in house
T1 sequence (Q9BY41 1-377): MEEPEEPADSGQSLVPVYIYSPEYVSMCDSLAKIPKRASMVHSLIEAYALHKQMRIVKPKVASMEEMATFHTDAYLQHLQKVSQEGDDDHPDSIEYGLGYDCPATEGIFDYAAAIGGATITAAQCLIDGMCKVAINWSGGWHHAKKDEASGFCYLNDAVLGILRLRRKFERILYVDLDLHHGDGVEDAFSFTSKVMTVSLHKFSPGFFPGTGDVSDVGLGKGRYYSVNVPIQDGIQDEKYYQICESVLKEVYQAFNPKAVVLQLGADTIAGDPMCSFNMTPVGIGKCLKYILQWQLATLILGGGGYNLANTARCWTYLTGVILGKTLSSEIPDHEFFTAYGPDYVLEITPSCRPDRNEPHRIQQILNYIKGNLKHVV
Put plainly: In vitro histone deacetylase assay: enzymatic HDAC8 assay, electrophoretic mobility shift. Type of test: biochemical. Particulars: substrate RHKK(Ac)-NH2, 1 nM enzyme, compounds listed under IC50 range headings. How it is done:
The enzymatic HDAC8 assay was performed using electrophoretic mobility shift assay. Full length human recombinant HDAC8 protein was expressed in baculoviral system and purified by affinity chromatography. The enzymatic reactions were assembled in 384 well plates in a total volume of 25 μL in a reaction buffer composing: 100 mM HEPES, pH7.5, 25 mM KC, 0.1% bovine serum albumin, 0.01% Triton X-100, 1% DMSO (from compounds) 2 μM of the fluorescently labeled peptide substrate and enzyme. The enzyme was added at a final concentration of 1 nM. The peptide substrate RHKK(Ac)-NH2 was used. The compounds were tested at 12 concentrations spaced by 3× dilution intervals. Negative control samples (0%-inhibition in the absence of inhibitor) and positive control samples (100%-inhibition) were assembled in replicates of four in each assay plate. The reactions were incubated at 25° C. and quenched by the addition of 45 μL of termination buffer (100 mM HEPES, pH 7.5, 0.01% Triton X-100, 0.05% SDS).
The terminated assay plates were analyzed on LabChip® 3000 microfluidic electrophoresis instrument (Perkin Elmer/Caliper Life Sciences). The fluorescence intensity of the electrophoretically separated de-acetylated product and substrate peptide was measured. Activity in each sample was determined as the product to sum ratio (PSR): P/(S+P), where P is the peak height of the product peptide and S is the peak height of the substrate peptide. Percent inhibition (Pinh) is determined using the following equation: Pinh=(PSR0%−PSRinh)/(PSR0%−PSR100%)*100, where PSRinh is the product sum ratio in the presence of inhibitor, PSR0% is the average product sum ration in the absence of inhibitor and PSR 100% is the average product sum ratio in 100%-inhibition control samples. The IC50 values of inhibitors were determined by fitting the %-inhibition curves with 4 parameter dose-response model using XLfit 4 software. Ranges of IC50 values for compounds of the invention are disclosed in Table 26.
For `O=C(/C=C/c1ccccc1Nc1nc2ccccc2[nH]1)NO` [Example I-1, (E)-3-(2-((1H-benzo[d]imidazol-2-yl)amino)phenyl)-N-hydroxyacrylamide], the half-inhibitory concentration (IC50) is 1 to 10 µM.
Turning to `COCCn1c(CNc2ccccc2/C=C/C(=O)NO)nc2ccccc21` [Example I-2, (E)-N-hydroxy-3-(2-(((1-(2-methoxyethyl)-1H-benzo[d]imidazol-2-yl)methyl)amino)phenyl)acrylamide], the IC50 was in the range of 1 to 10 µM.
As for `COCCn1c(Nc2ccccc2/C=C/C(=O)NO)nc2ccccc21` [Example I-3, (E)-N-hydroxy-3-(2-((1-(2-methoxyethyl)-1H-benzo[d]imidazol-2-yl)amino)phenyl)acrylamide], the half-inhibitory concentration (IC50) fell in the range of 1 to 10 µM.
As to `O=C(/C=C/c1ccccc1NCc1nc2ccc(C(F)(F)F)cc2[nH]1)NO` [Example I-4, (E)-N-hydroxy-3-(2-(((6-(trifluoromethyl)-1H-benzo[d]imidazol-2-yl)methyl)amino)phenyl)acrylamide], the IC50 fell in the range of 1 to 10 µM.
On to `O=C(/C=C/c1ccccc1NC(=O)Nc1cccc(C(F)(F)F)c1)NO` [Example I-5, (E)-N-hydroxy-3-(2-(3-(3-(trifluoromethyl)phenyl)ureido)phenyl)acrylamide], for which the concentration for half-maximal inhibition (IC50) was in the range of 1 to 10 µM.
For the compound `O=C(/C=C/c1ccccc1NC(=O)C1(O)CCC1)NO` [Example I-6, (E)-1-hydroxy-N-(2-(3-(hydroxyamino)-3-oxoprop-1-en-1-yl)phenyl)cycobutane-1-carboxamide], the IC50 was 1 to 10 µM.
Consider `O=C(/C=C/c1ccccc1NS(=O)(=O)c1cccc(C(F)(F)F)c1)NO` [Example I-7, (E)-N-hydroxy-3-(2-(3-(trifluoromethyl)phenylsulfonamido)phenyl)acrylamide], for which the 50% inhibitory concentration (IC50) lay in the range of 1 to 10 µM.
In the case of `NC1CCN(c2ccccc2/C=C/C(=O)NO)CC1` [Example I-8, (E)-3-(2-(4-aminopiperidin-1-yl)phenyl)-N-hydroxyacrylamide 2,2,2-trifluoroacetate], the IC50 lay in the range of 1 to 10 µM.
`COc1ccc(CC(=O)NC2CCN(c3ccccc3/C=C/C(=O)NO)CC2)cc1` [Example I-9, (E)-N-hydroxy-3-(2-(4-(2-(4-methoxyphenyl)acetami-do)piperidin-1-yl)phenyl)acrylamide]: the 50% inhibitory concentration (IC50) lay in the range of 1 to 10 µM.
In the case of `O=C(/C=C/c1ccccc1N1CCC(NC(=O)COc2ccc(Cl)cc2)CC1)NO` [Example I-10, (E)-3-(2-(4-(2-(4-chlorophenoxy)acetami-do)piperidin-1-yl)phenyl)-N-hydroxyacrylamide] it was 1 to 10 µM; in that of `O=C(/C=C/c1ccccc1N1CCC(NC(=O)c2ccc3cccnc3n2)CC1)NO` [Example I-11, (E)-N-(1-(2-(3-(hydroxyamino)-3-oxoprop-1-en-1-yl)phenyl)piperidin-4-yl)-1,8-naphthyridine-2-carboxamide], 1 to 10 µM; in that of `CN1CC(C(=O)NC2CCN(c3ccccc3/C=C/C(=O)NO)CC2)C1` [Example I-12, (E)-N-(1-(2-(3-(hydroxyamino)-3-oxoprop-1-en-1-yl)phenyl)piperidin-4-yl)-1-methylazetidine-3-carboxamide], 1 to 10 µM.
The result for `O=C(/C=C/c1ccccc1N1CCC(NC(=O)Cc2ccc(Cl)cc2)CC1)NO` [Example I-13, (E)-3-(2-(4-(2-(4-chlorophenyl)acetamido)piperidin-1-yl)phenyl)-N-hydroxyacrylamide] reads 1 to 10 µM.
As for `Cc1cccc(C(=O)NC2CCN(c3ccccc3/C=C/C(=O)NO)CC2)c1` [Example I-14], the concentration for half-maximal inhibition (IC50) lay within 1 to 10 µM.
Take `Cc1oc(-c2ccc(Cl)cc2)cc1C(=O)NC1CCN(c2ccccc2/C=C/C(=O)NO)CC1` [Example I-15]: the half-inhibitory concentration (IC50) fell in the range of 1 to 10 µM.
In the case of `Cc1c(C(=O)NC2CCN(c3ccccc3/C=C/C(=O)NO)CC2)cnn1-c1ccccc1` [Example I-16] it was 1 to 10 µM; in that of `CN(C)Cc1ccccc1CNC1CCN(c2ccccc2C=CC(=O)NO)CC1` [Example I-17, (E)-3-(2-(4-((2-((dimethylamino)methyl)benzyl)amino)piperidin-1-yl)phenyl-N-hydroxyacrylamide], 1 to 10 µM.
With `CN(C)Cc1cccc(CNC2CCN(c3ccccc3/C=C/C(=O)NO)CC2)c1` [Example I-18, (E)-3-(2-(4-((3-((dimethylamino)methyl)benzyl)amino)piperidin-1-yl)phenyl)-N-hydroxyacrylamide], the IC50 was in the range of 1 to 10 µM.
The result for `O=C(/C=C/c1ccccc1N1CCN(C(=O)C2CCCO2)CC1)NO` (stereo not drawn) [Example I-19, (E)-N-hydroxy-3-(2-(4-(tetrahydrofuran-2-carbonyl)piperazin-1-yl)phenyl)acrylamide] reads 1 to 10 µM; that for `O=C(/C=C/c1ccccc1N1CCN(C(=O)C2Cc3ccccc3C2)CC1)NO` [Example I-20, (E)-3-(2-(4-(2,3-dihydro-1H-indene-2-carbonyl)-piperazin-1-yl)phenyl)-N-hydroxyacrylamide], 1 to 10 µM; that for `COCC1(C(=O)N2CCN(c3ccccc3/C=C/C(=O)NO)CC2)CCC1` [Example I-21, (E)-N-hydroxy-3-(2-(4-(1-(methoxymethyl)cyclobu-tane-1-carbonyl)piperazin-1-yl)phenyl)acrylamide], 1 to 10 µM.
For `O=C(/C=C/c1ccccc1N1CCN(C(=O)c2cc3ccccn3n2)CC1)NO` [Example I-22, (E)-N-hydroxy-3-(2-(4-(pyrazolo[1,5-a]pyridine-2-carbonyl)piperazin-1-yl)phenyl)acrylamide], the IC50 was 1 to 10 µM.
As for `O=C(/C=C/c1ccccc1N1CCN(C(=O)C2CCC(F)(F)CC2)CC1)NO` [Example I-23], the IC50 was in the range of 1 to 10 µM.
On to `O=C(/C=C/c1ccccc1N1CCN(C(=O)CC23CCCN2CCC3)CC1)NO` [Example I-24, (E)-N-hydroxy-3-(2-(4-(2-(tetrahydro-1H-pyrrolizin-7a(5H)-yl)acetyl)piperazin-1-yl)phenyl)acrylamide], for which the IC50 was in the range of 1 to 10 µM.
In the case of `O=C(/C=C/c1ccccc1N1CCN(C(=O)c2cc3ccccc3[nH]2)CC1)NO` [Example I-25, (E)-3-(2-(4-(1H-indole-2-carbonyl)piperazin-1-yl)phenyl)-N-hydroxyacrylamide] it was 1 to 10 µM; in that of `CC(C)S(=O)(=O)NC1CCN(c2ccccc2/C=C/C(=O)NO)CC1` [Example I-26], 1 to 10 µM; in that of `O=C(/C=C/c1ccccc1N1CCC(NS(=O)(=O)C2CCCC2)CC1)NO` [Example I-27, (E)-3-(2-(4-(cyclopentanesulfonamido)piperidin-1-yl)phenyl)-N-hydroxyacrylamide], 1 to 10 µM.
Turning to `O=C(/C=C/c1ccccc1N1CCN(S(=O)(=O)c2ccc3c(c2)OCCO3)CC1)NO` [Example I-28, (E)-3-(2-(4-((2,3-dihydrobenzo[b][1,4]di-oxin-6-yl)sulfonyl)piperazin-1-yl)phenyl)-N-hydroxyacrylamide], the IC50 was 1 to 10 µM.
Take `O=C(/C=C/c1ccccc1N1CCN(S(=O)(=O)c2ccccc2OC(F)(F)F)CC1)NO` [Example I-29, (E)-N-hydroxy-3-(2-(4-((2-(trifluoromethoxy)phenyl)sulfonyl)piperazin-1-yl)phenyl)acrylamide]: the concentration for half-maximal inhibition (IC50) lay in the range of 1 to 10 µM.
For `O=C(/C=C/c1ccccc1N1CCN(S(=O)(=O)c2ccc(OC(F)F)cc2)CC1)NO` [Example I-30, (E)-3-(2-(4-((4-(difluoromethoxy)phenyl)sulfonyl)piperazin-1-yl)phenyl)-N-hydroxyacrylamide], the IC50 lay within 1 to 10 µM.
As to `COc1ccccc1S(=O)(=O)N1CCN(c2ccccc2/C=C/C(=O)NO)CC1` [Example I-31, (E)-N-hydroxy-3-(2-(4-((2-methoxyphenyl)sulfonyl)piperazin-1-yl)phenyl)acrylamide], the IC50 was 1 to 10 µM.
In the case of `O=C(/C=C/c1ccccc1N1CCN(S(=O)(=O)c2ccc(CNC(=O)c3ccccc3)s2)CC1)NO` [Example I-32, (E)-N-((5-((4-(2-(3-(hydroxyamino)-3-oxoprop-1-en-1-yl)phenyl)piperazin-1-yl)sulfonyl)thiophen-2-yl)methyl)benzamide] it was 1 to 10 µM; in that of `Cc1c(S(=O)(=O)N2CCN(c3ccccc3/C=C/C(=O)NO)CC2)sc2ccc(Cl)cc12` [Example I-33, (E)-3-(2-(4-((5-chloro-3-methylbenzo[b]thiophen-2-yl)sulfonyl)piperazin-1-yl)phenyl)-N-hydroxyacrylamide], 1 to 10 µM.
